In patent US9018383B2, “Acylamino-substituted cyclic carboxylic acid derivatives and their use as pharmaceuticals” (Sanofi, priority 2009, dated 2015):

Target: human Edg-2 receptor (Homo sapiens, UniProt Q92633)
Test: Determination of Edg-2 receptor inhibition by FLIPR measurements (LPA-mediated calcium liberation)
Assay type: cell-based
Conditions: CHO cells overexpressing human Edg-2 receptor, LPA 100 nM, fluo-4 calcium fluorescence; read-out: Inhibitory concentrations IC50 for inhibition of the Edg-2 receptor
Outline: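 IC50 was derived from % inhibition of the baseline-corrected peak fluo-4 signal relative to DMSO, measured in triplicate. Compound was added ~5 min before 100 nM LPA (18:1) to human Edg-2–expressing CHO cells in pH 7.5 HBSS buffer with probenecid and HEPES, and fluorescence was monitored ~3 min.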

Sequence of human Edg-2 receptor (Q92633 whole entry): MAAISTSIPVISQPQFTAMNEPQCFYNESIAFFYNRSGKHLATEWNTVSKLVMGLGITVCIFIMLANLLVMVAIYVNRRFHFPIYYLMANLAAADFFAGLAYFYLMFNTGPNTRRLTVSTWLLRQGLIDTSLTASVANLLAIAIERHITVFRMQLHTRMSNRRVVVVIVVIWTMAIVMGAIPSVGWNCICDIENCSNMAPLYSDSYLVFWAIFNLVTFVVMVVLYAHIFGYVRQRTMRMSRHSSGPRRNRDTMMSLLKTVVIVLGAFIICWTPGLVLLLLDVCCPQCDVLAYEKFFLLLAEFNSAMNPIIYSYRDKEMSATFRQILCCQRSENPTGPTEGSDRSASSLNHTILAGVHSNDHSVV

Molecule | IC50 [µM]
COc1ccc(C(=O)NC2(C(=O)O)CCCCCC2)cc1-c1cccc(C#N)c1 [Example 106] | 1 to 30
COc1ccc(C(=O)NC2(C(=O)O)CCCCCC2)cc1OCCc1ccsc1 [Example 11, 1-{3-[2-(thiophen-3-yl)-ethoxy]-4-methoxy-benzoylamino]-cycloheptanecarboxylic acid] | 0.1 to 1
COc1ccc(C(=O)NC2(C(=O)O)CCSCC2)cc1OCCc1cccc(C)c1 [Example 36] | 0.1 to 1
COc1ccc(C(=O)NC2(C(=O)O)CCCCCC2)c(F)c1OCCc1cccc(C)c1 [Example 69, 1-[2-Fluoro-4-methoxy-3-(2-m-tolyl-ethoxy)-benzoylamino]-cycloheptanecarboxylic acid] | 0.1 to 1
C[C@H]1CC[C@@](NC(=O)c2ccc(OCCO)c(OCCc3ccccc3)c2)(C(=O)O)CC1 [Example 420, trans-1-[4-(2-Hydroxy-ethoxy)-3-phenethyloxy-benzoylamino]-4-methyl-cyclohexanecarboxylic acid] | 0.1 to 1
COc1ccc(C(=O)NC2(C(=O)O)CCC(C(C)(C)C)CC2)cc1OCCc1cccc(C)c1 (stereo not drawn) [Example 371] | 0.1 to 1
COc1ccc(C(=O)NC2(C(=O)O)CCCCCC2)cc1OCCc1cccc(F)c1 [Example 365] | 0.1 to 1
C[C@H]1CC[C@](NC(=O)c2ccc(OCCO)c(OCCc3ccccc3)c2)(C(=O)O)CC1 [Example 421, cis-1-[4-(2-Hydroxy-ethoxy)-3-phenethyloxy-benzoylamino]-4-methyl-cyclohexanecarboxylic acid] | 0.1 to 1
COc1ccc(C(=O)NC2(C(=O)O)CCCCCCC2)cc1OCCc1cc(C)ccc1F [Example 24, 1-{3-[2-(2-Fluoro-5-methyl-phenyl)-ethoxy]-4-methoxy-benzoylamino}-cyclooctanecarboxylic acid] | 0.1 to 1
CC[C@H]1CC[C@@](NC(=O)c2ccc(CO)c(-c3cccc(C(F)(F)F)c3)c2)(C(=O)O)CC1 [Example 431, trans-4-Ethyl-1-[(6-hydroxymethyl-3′-trifluoromethyl-biphenyl-3-carbonyl)-amino]-cyclohexanecarboxylic acid] | 0.1 to 1
COc1ncc(C(=O)N[C@]2(C(=O)O)CC[C@@H](C(C)(C)C)CC2)cc1OCCc1cccc(C)c1 [Example 89, trans-4-tert-Butyl-1-{[6-methoxy-5-(2-m-tolyl-ethoxy)-pyridine-3-carbonyl]-amino}-cyclohexanecarboxylic acid] | 1 to 30
CC[C@H]1CC[C@](NC(=O)c2cnc(O)c(-c3cccc(C(F)(F)F)c3)c2)(C(=O)O)CC1 [Example 426, cis-4-Ethyl-1-{[6-hydroxy-5-(3-trifluoromethyl-phenyl)-pyridine-3-carbonyl]-amino}-cyclohexanecarboxylic acid] | 0.1 to 1
COCCOc1ccc(C(=O)N[C@]2(C(=O)O)CC[C@H](C)CC2)cc1OCCc1cccc(Cl)c1 [Example 113, cis-1-[3-[2-(3-Chloro-phenyl)-ethoxy]-4-(2-methoxy-ethoxy)-benzoylamio]-4-methyl-cyclohexanecarboxylic acid] | 0.1 to 1
CC[C@H]1CC[C@](NC(=O)c2cnc(OC)c(-c3ccc(F)cc3)c2)(C(=O)O)CC1 [Example 407] | < 0.1
COc1ccc(C(=O)NC2(C(=O)O)CCCOCC2)cc1OCCc1cccc(C)c1 (stereo not drawn) [Example 25, 4-[4-Methoxy-3-(2-m-tolyl-ethoxy)-benzoylamino]-oxepane-4-carboxylic acid] | 1 to 30
Cc1cccc(CCOc2cc(C(=O)NC3(C(=O)O)CCCCCC3)ccc2OCCO)c1 [Example 124, 1-[4-(2-Hydroxy-ethoxy)-3-(2-m-tolyl-ethoxy)-benzoylamino]-cycloheptane-carboxylic acid] | 0.1 to 1
CC[C@H]1CC[C@](NC(=O)c2ccc(C=O)c(-c3cccc(C(F)(F)F)c3)c2)(C(=O)O)CC1 [Example 428, cis-4-Ethyl-1-[(6-formyl-3′-trifluoromethyl-biphenyl-3-carbonyl)-amino]-cyclohexanecarboxylic acid] | < 0.1
COc1ncc(C(=O)NC2(C(=O)O)CCCCCC2)cc1-c1cccc(NS(=O)(=O)N(C)C)c1 [Example 93] | 1 to 30
COc1ccc(C(=O)NC2(C(=O)O)CCCCCC2)cc1OCCc1cc(Cl)ccc1F [Example 3, 1-{3-[2-(5-Chloro-2-fluoro-phenyl)-ethoxy]-4-methoxy-benzoylamino}-cycloheptanecarboxylic acid] | < 0.1

Other lines, results leading:

IC50 [µM] | Molecule
< 0.1 | COc1ccc(C(=O)NC2(C(=O)O)CC(C)C2)cc1OCCc1cccc(C)c1 (stereo not drawn) [Example 76, 1-[4-Methoxy-3-(2-m-tolyl-ethoxy)-benzoylamino]-3-methyl-cyclobutanecarboxylic acid]
< 0.1 | COc1ccc(-c2cc(C(=O)N[C@]3(C(=O)O)CC[C@H](C(F)(F)F)CC3)cc(F)c2OC)cc1Cl [Example 448, Cis-1-[(3′-Chloro-5-fluoro-6,4′-dimethoxy-biphenyl-3-carbonyl)-amino]-4-trifluoromethyl-cyclohexanecarboxylic acid]
< 0.1 | CC[C@H]1CC[C@](NC(=O)c2cnc(OC)c(-c3ccc(OC)c(F)c3)c2)(C(=O)O)CC1 [Example 411]
< 0.1 | CC[C@H]1CC[C@](NC(=O)c2cc(OCCc3cccc(C)c3)c3c(c2)OC(F)(F)O3)(C(=O)O)CC1 [Example 456, Cis-1-{[2,2-Difluoro-7-(2-m-tolyl-ethoxy)-benzo[1,3]dioxole-5-carbonyl]-amino}-4-ethyl-cyclohexanecarboxylic acid]
< 0.1 | COc1ccc(C(=O)NC2(C(=O)O)CCCCCC2)cc1OCCc1cccc(C)c1 [Example 2, 1-[4-Methoxy-3-(2-m-tolyl-ethoxy)-benzoylamino]-cycloheptanecarboxylic acid]
< 0.1 | CC[C@H]1CC[C@](NC(=O)c2cnc(OC)c(-c3cccc(C(F)(F)F)c3)c2)(C(=O)O)CC1 [Example 303]
< 0.1 | CCC1CCC(NC(=O)c2ccc(OC)c(OCCc3cccc(C)c3)c2)(C(=O)O)CC1 (stereo not drawn) [Example 50]
< 0.1 | CC[C@H]1CC[C@](NC(=O)c2ccc(OC)c(OCCc3cccc(CCO)c3)c2)(C(=O)O)CC1 [Example 111, cis-4-Ethyl-1-(3-{2-[3-(2-hydroxy-ethyl)-phenyl]-ethoxy}-4-methoxy-benzoylamino)-cyclohexanecarboxylic acid]
< 0.1 | CC[C@H]1CC[C@](NC(=O)c2cc(OCCc3cccc(C)c3)c3c(c2)OCO3)(C(=O)O)CC1 [Example 134, cis-4-Ethyl-1-{[7-(2-m-tolyl-ethoxy)-benzo[1,3]dioxole-5-carbonyl]-amino}-cyclohexanecarboxylic acid]
< 0.1 | CC[C@H]1CC[C@](NC(=O)c2cnc(OC)c(OCCc3cccc(CCO)c3)c2)(C(=O)O)CC1 [Example 423, cis-4-Ethyl-1-[(5-{2-[3-(2-hydroxy-ethyl)-phenyl]-ethoxy}-6-methoxy-pyridine-3-carbonyl)-amino]-cyclohexanecarboxylic acid]
< 0.1 | CCc1ncc(C(=O)N[C@]2(C(=O)O)CC[C@@H](CC)CC2)cc1OCCc1cccc(Cl)c1 [Example 438, trans-1-({5-[2-(3-Chloro-phenyl)-ethoxy]-6-ethyl-pyridine-3-carbonyl}-amino)-4-ethyl-cyclohexanecarboxylic acid]
< 0.1 | CC[C@H]1CC[C@](NC(=O)c2cnc(OC)c(-c3cc(F)c(F)c(F)c3)c2)(C(=O)O)CC1 [Example 301]
< 0.1 | CC[C@H]1CC[C@](NC(=O)c2ccc(OC)c(-c3cccc(C4COC4)c3)c2)(C(=O)O)CC1 [Example 458, Cis-4-Ethyl-1-[(6-methoxy-3′-oxetan-3-yl-biphenyl-3-carbonyl)-amino]-cyclohexanecarboxylic acid]
< 0.1 | COc1ccc(-c2cncc(C(=O)N[C@]3(C(=O)O)CC[C@H](C(F)(F)F)CC3)c2)cc1Cl [Example 451, 1-{[5-(3-Chloro-4-methoxy-phenyl)-pyridine-3-carbonyl]-amino}-4-trifluoromethyl-cyclohexanecarboxylic acid]
< 0.1 | COc1ccc(C(=O)NC2(C(=O)O)CCCCCC2)cc1OCC1(c2ccccc2)COC1 [Example 22]
< 0.1 | CC[C@H]1CC[C@](NC(=O)c2cnc(OCCO)c(-c3ccc(OC)c(Cl)c3)c2)(C(=O)O)CC1 [Example 417]
< 0.1 | CC[C@H]1CC[C@](NC(=O)c2cncc(-c3ccc(OC)c(Cl)c3)c2)(C(=O)O)CC1 [Example 453, 1-{[5-(3-Chloro-4-methoxy-phenyl)-pyridine-3-carbonyl]-amino}-4-ethyl-cyclohexanecarboxylic acid]
< 0.1 | CC[C@H]1CC[C@](NC(=O)c2cnc(OCCO)c(-c3cc(F)cc(F)c3)c2)(C(=O)O)CC1 [Example 415]

Test system: vascular smooth muscle cells and endothelial cells
Test: not given
Conditions: cited from earlier work

Molecule | LPA-induced oxidative stress
dioctanoylglycerol pyrophosphate [DGPP(8:0)] | attenuated

Test system: unilateral ureteral obstruction
Test: not given
Conditions: model of unilateral ureteral obstruction; cited from earlier work

Molecule | renal injury
Cc1noc(-c2ccc(CSCCC(=O)O)cc2)c1NC(=O)OC(C)c1ccccc1Cl (stereo not drawn) [Ki16425] | attenuated

Test system: bone metastasis
Test: not given
Conditions: in vivo; cited from earlier work

Molecule | progression of bone metastasis
Cc1noc(-c2ccc(CSCCC(=O)O)cc2)c1NC(=O)OC(C)c1ccccc1Cl (stereo not drawn) [Ki16425] | reduced

Test system: platelet activation
Test: not given
Conditions: cited from earlier work

Molecule | effects of LPA, moxLDL or lipid core extracts from human atherosclerotic plaques on platelet activation
dioctanoylglycerol pyrophosphate [DGPP(8:0)] | abrogated

Test system: mesangial cells
Test: not given
Conditions: cited from earlier work

Molecule | LPA-induced proliferative response of mesangial cells
dioctanoylglycerol pyrophosphate [DGPP(8:0)] | inhibited
